Article PMC12808100, “The non-catalytic DNA polymerase ε subunit is an NPF motif recognition protein” (Nature Communications, 2025)
Residues, ends and D or L forms follow the SMILES beside them.

What was measured:
POLE = assay: Titration nHU, Western blot, endogenous POLE in Jurkat extract; type: binding, human; details: for Kd: source data of Fig 5, titration nHU, Jurkat extract, unit inferred; for binding to endogenous POLE: titration nHU with peptide bait, Western blot
Text: (§1) To identify the partners of NPF motifs, we used the native holdup (nHU) assay that was recently developed by our team (Fig. 1B). The holdup approach has been extensively used to determine equilibrium dissociation constants of transient interactions mediated by PDZ and SH3 domains, 14-3-3, and human papilloma virus E6 proteins, and even nucleic acid-protein interactions[7],[30]–[35]. In the nHU experiments, a purified bait molecule, or a control compound, is immobilized on a resin at high concentration (typically 10 μM, or higher) and these resin stocks are subsequently mixed with dilute cell extracts. After a relatively long incubation, i.e., 2 h at 4 °C, the liquid phase is separated by centrifugation. This liquid phase contains the unbound prey molecules at near binding equilibrium that can be quantified using selective and quantitative analytical approaches, such as mass spectrometry. Therefore, proteins that interact with the bait molecule will appear to be depleted in the solvent phase and by measuring its relative concentration compared to the control nHU experiment, the degree of binding (θ) can be determined that can be converted to apparent steady-state dissociation constants, according to:1 θ=1−Ifree/Itot=Cbait/Cbait+Kapp where Itot and Ifree are the measured total and bait-depleted equilibrium mass spectrometry total ion intensities of prey proteins, Cbait is the bait molecule concentration and Kapp is the apparent dissociation constant.
(§2) Jurkat E6.1 cells (ECACC #88042803, RRID: CVCL_0367) were grown in RPMI (Gibco) medium completed with 10% FBS (Gibco BRL) and 40 μg/ml gentamicin (Gibco/Life Technology). To prepare total cell extracts, Jurkat cells were seeded onto T-175 flasks and grew until 3 × 10^6 cells/ml confluency. Cells were collected by 1000 g x 5 min centrifugation, washed with PBS and then lysed in ice-cold lysis buffer (Hepes-KOH pH 7.5 50 mM, NaCl 150 mM, Triton X-100 1%, cOmplete EDTA-free protease inhibitor cocktail 5x, TCEP 5 mM, glycerol 10%).
(§3) Cell suspensions were sonicated 4×20 sec with 1 sec long pulse on ice, then incubated rotating at 4 °C for 30 min. The lysates were centrifuged at 12,000 rpm 4 °C for 20 min and supernatant was kept. Total protein concentration was measured by standard Bradford method (Bio-Rad Protein Assay Dye Reagent #5000006) using a BSA calibration curve (MP Biomedicals #160069, diluted in lysis buffer) on a Bio-Rad SmartSpec 3000 spectrophotometer instrument.
(§4) Titration holdup experiments were carried out as described above using 25 μl saturated resins prepared. Briefly, we mixed control, or bait-saturated resins at various proportions by keeping the total resin amount and resin-analyte ratio constant during the experiment (for 25 μl we used 100 μl cell extract as analyte). In titration experiments with protein baits, bait concentration was determined as described above for the saturated resin stocks. Experiments were carried out at 4 °C for 2 h and recovered supernatants were subjected to western blot or dot blot analysis.
(§5) For Western blot, samples were mixed with 4x Laemmli Sample Buffer in 3:1 ratio. Equal amounts of samples were loaded on 6-10% acrylamide-gels (generally 16 μg). Transfer was done into PVDF membranes using a Trans-Blot Turbo Transfer System and Trans-Blot Turbo RTA Transfer Kit (BioRad, #1704275). For Dot blot, nHU samples were directly loaded on Nitrocellulose membranes using 48 Sample vacuum manifold (Cleaver Scientific) following the manufacturer’s recommendations.
After 1 h of blocking in 5% milk, membranes were incubated overnight at 4 °C with primary antibodies in 5% milk-TBS-Tween.

EPS15 = biological target: T1, EPS15 (Homo sapiens, UniProt P42566); assay: Titration nHU, Western blot, endogenous EPS15 in Jurkat extract; type: binding; details: source data of Fig 5, titration nHU, unit inferred
T1 construct: endogenous in cells; host or cells: Jurkat E6.1
T1 sequence (P42566 1-896): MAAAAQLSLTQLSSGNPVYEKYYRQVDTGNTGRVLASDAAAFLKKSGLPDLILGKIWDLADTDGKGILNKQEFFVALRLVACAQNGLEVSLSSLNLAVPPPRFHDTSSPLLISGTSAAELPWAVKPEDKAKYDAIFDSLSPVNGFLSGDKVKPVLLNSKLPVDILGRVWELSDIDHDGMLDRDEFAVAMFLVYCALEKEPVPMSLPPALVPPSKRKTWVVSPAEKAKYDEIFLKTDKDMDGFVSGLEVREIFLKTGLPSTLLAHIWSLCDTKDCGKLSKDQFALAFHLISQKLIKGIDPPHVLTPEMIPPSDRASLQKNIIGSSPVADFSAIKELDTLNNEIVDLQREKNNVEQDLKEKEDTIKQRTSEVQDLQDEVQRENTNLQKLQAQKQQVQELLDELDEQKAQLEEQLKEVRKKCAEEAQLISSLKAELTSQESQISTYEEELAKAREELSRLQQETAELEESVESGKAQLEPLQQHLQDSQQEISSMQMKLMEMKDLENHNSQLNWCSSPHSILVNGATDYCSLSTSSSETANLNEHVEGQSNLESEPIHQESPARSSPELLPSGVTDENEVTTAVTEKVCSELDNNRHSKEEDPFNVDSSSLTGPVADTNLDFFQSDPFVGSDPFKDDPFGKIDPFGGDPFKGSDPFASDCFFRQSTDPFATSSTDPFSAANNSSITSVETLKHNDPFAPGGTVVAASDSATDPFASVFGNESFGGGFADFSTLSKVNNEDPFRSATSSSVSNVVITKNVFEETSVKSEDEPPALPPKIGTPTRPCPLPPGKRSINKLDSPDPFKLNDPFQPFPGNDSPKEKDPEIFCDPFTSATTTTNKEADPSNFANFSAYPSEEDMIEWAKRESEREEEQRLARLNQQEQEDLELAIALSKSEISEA
Text: as §1, §2, §3, §4
as §5, with “recommendations. […]” for “recommendations.”

Compound	Kd (POLE)	Kd (EPS15)	binding to endogenous POLE (POLE; listed as NPF motif of ERCC6L)	binding to endogenous POLE (POLE; listed as CLSPN)	binding to endogenous POLE (POLE; listed as Claspin)
CC(C)C[C@H](NC(=O)[C@H](CCCNC(=N)N)NC(=O)[C@H](C)NC(=O)[C@H](Cc1ccccc1)NC(=O)[C@@H]1CCCN1C(=O)[C@H](CC(N)=O)NC(=O)[C@H](CCCNC(=N)N)NC(=O)[C@H](CCCNC(=N)N)NC(=O)[C@H](C)NC(=O)[C@H](C)NC(=O)[C@H](CC(=O)O)NC(=O)[C@H](CC(C)C)NC(=O)[C@H](CCCNC(=N)N)NC(=O)[C@H](C)NC(=O)[C@H](Cc1ccccc1)NC(=O)[C@@H]1CCCN1C(=O)[C@H](CC(N)=O)NC(=O)[C@H](CCCNC(=N)N)NC(=O)[C@H](CCCNC(=N)N)NC(=O)[C@H](C)NC(=O)[C@H](CC(=O)O)NC(=O)[C@H](CC(C)C)NC(=O)[C@H](CCCNC(=N)N)NC(=O)[C@H](C)NC(=O)[C@H](Cc1ccccc1)NC(=O)[C@@H]1CCCN1C(=O)[C@H](CC(N)=O)NC(=O)[C@H](CCCNC(=N)N)NC(=O)[C@H](CCCNC(=N)N)NC(=O)[C@H](C)NC(=O)[C@H](C)NC(=O)CCCCCNC(=O)CCCC[C@@H]1SC[C@@H]2NC(=O)N[C@@H]21)C(=O)N[C@@H](CC(=O)O)C(N)=O [3xDONSON] (HELM PEPTIDE1{[O=C1N[C@H]2[C@H](CS[C@H]2CCCCC(=O)[*:2])N1].[O=C(CCCCCN[*:1])[*:2]].A.A.R.R.N.P.F.A.R.L.D.A.R.R.N.P.F.A.R.L.D.A.A.R.R.N.P.F.A.R.L.D.[am]}$$$$V2.0)	0.1 µM	0.8 µM	–	–	–
C[C@H](NC(=O)[C@H](C)NC(=O)[C@@H]1CCCN1C(=O)CNC(=O)CCCCCNC(=O)CCCC[C@@H]1SC[C@@H]2NC(=O)N[C@@H]21)C(=O)N[C@@H](C)C(=O)N[C@@H](CCCNC(=N)N)C(=O)N[C@@H](CCCNC(=N)N)C(=O)N[C@@H](CC(N)=O)C(=O)N1CCC[C@H]1C(=O)N[C@@H](Cc1ccccc1)C(=O)N[C@@H](CO)C(=O)N[C@@H](CC(=O)O)C(=O)N[C@@H](CCCNC(=N)N)C(=O)N[C@@H](CC(=O)O)C(=O)N[C@@H](CC(N)=O)C(=O)N[C@@H](CCCNC(=N)N)C(=O)N1CCC[C@H]1C(=O)N[C@@H](CCCNC(=N)N)C(N)=O [DONSON_SYNJ1_C] (HELM PEPTIDE1{[O=C1N[C@H]2[C@H](CS[C@H]2CCCCC(=O)[*:2])N1].[O=C(CCCCCN[*:1])[*:2]].G.P.A.A.A.R.R.N.P.F.S.D.R.D.N.R.P.R.[am]}$$$$V2.0)	8.5 µM	> 20 µM	–	–	–
RRIVSDGEDEDDSFKDTSSINPFNTSLFQFSSVKQFDAS [ERCC6L 1024-1062, biotinylated NPF motif peptide of ERCC6L]	–	–	No apparent binding	–	–
C[C@H](NC(=O)[C@H](C)NC(=O)[C@@H]1CCCN1C(=O)CNC(=O)CCCCCNC(=O)CCCC[C@@H]1SC[C@@H]2NC(=O)N[C@@H]21)C(=O)N[C@H](C(=O)N[C@@H](CCCNC(=N)N)C(=O)N[C@H](C(=O)N[C@@H](CC(N)=O)C(=O)N1CCC[C@H]1C(=O)N[C@@H](Cc1ccccc1)C(=O)N[C@@H](CO)C(=O)N[C@@H](CC(=O)O)C(=O)N[C@@H](CCCNC(=N)N)C(=O)N[C@@H](CC(=O)O)C(=O)N[C@@H](CC(N)=O)C(=O)N[C@@H](CCCNC(=N)N)C(=O)N1CCC[C@H]1C(=O)N[C@@H](CCCNC(=N)N)C(N)=O)[C@@H](C)O)[C@@H](C)O [DONSON_SYNJ1_NC] (HELM PEPTIDE1{[O=C1N[C@H]2[C@H](CS[C@H]2CCCCC(=O)[*:2])N1].[O=C(CCCCCN[*:1])[*:2]].G.P.A.A.T.R.T.N.P.F.S.D.R.D.N.R.P.R.[am]}$$$$V2.0)	> 200 µM	> 200 µM	–	–	–
CC(C)C[C@H](NC(=O)[C@H](CCCNC(=N)N)NC(=O)[C@H](C)NC(=O)[C@H](Cc1ccccc1)NC(=O)[C@@H]1CCCN1C(=O)[C@H](CC(N)=O)NC(=O)[C@@H](NC(=O)[C@H](CCCNC(=N)N)NC(=O)[C@@H](NC(=O)[C@H](C)NC(=O)[C@H](C)NC(=O)[C@@H]1CCCN1C(=O)CNC(=O)CCCCCNC(=O)CCCC[C@@H]1SC[C@@H]2NC(=O)N[C@@H]21)[C@@H](C)O)[C@@H](C)O)C(=O)N[C@@H](CC(=O)O)C(=O)N[C@@H](CC(N)=O)C(=O)N[C@@H](CCCNC(=N)N)C(=O)N1CCC[C@H]1C(=O)N[C@@H](CCCNC(=N)N)C(N)=O [DONSON_SYNJ1_N] (HELM PEPTIDE1{[O=C1N[C@H]2[C@H](CS[C@H]2CCCCC(=O)[*:2])N1].[O=C(CCCCCN[*:1])[*:2]].G.P.A.A.T.R.T.N.P.F.A.R.L.D.N.R.P.R.[am]}$$$$V2.0)	9.4 µM	> 30 µM	–	–	–
SRPMVIQESKSLLRNPFEAIRPGS [CLSPN 1223-1246, biotinylated NPF motif peptide of Claspin]	–	–	–	unable to bind to endogenous POLE	could not interact with POLE
